Literature values in US20160375041A1, “INHIBITION OF ISOPRENOID BIOSYNTHETIC PATHWAYS TO TREAT AUTOIMMUNE DISORDERS” (priority 2013, published 2016).

System: Vγ9Vδ2 TCR
Details: microbial derived HMBPP; fold more potent as stimulatory pyrophosphate

SMILES: C/C(=C\COP(=O)(O)OP(=O)(O)O)CO [HMBPP, (E)-4-Hydroxy-3-methyl-but-2-enyl pyrophosphate]
- potency relative to any other known, naturally-occurring pyrophosphate: over 10,000
